ChEMBL document CHEMBL3867428, “Eremophilane Sesquiterpenes from an Endophytic Fungus Periconia Species” (J Nat Prod, 2016)

Experiments:
[1] = Cytotoxicity against human MCF7 cells assessed as reduction in cell viability after 96 hrs by MTT assay; format: functional, cell-based; details: MCF7, 96 h
[2] = Cytotoxicity against human HeLa cells assessed as reduction in cell viability after 96 hrs by MTT assay; format: functional, cell-based
[3] = tested on: Human immunodeficiency virus 1; assay: Antiviral activity against VSV-G pseudotyped HIV1 infected in human SupT1 cells after 48 hrs by luciferase reporter gene assay; format: functional, cell-based; details: Human immunodeficiency virus 1, SUP-T1, 48 h
[4] = Antiinflammatory activity in […] cells assessed as inhibition of LPS-induced NO production at 1 uM preincubated with compound followed by LPS stimulation after 24 hrs; format: functional; details: Mus musculus, BV-2

C=C(C)[C@@]1(O)C[C@@]2(C)C(=C[C@@H]1O)C=CC(=O)[C@H]2C
IC50 [1]: 17.9 µM

C[C@H]1C(=O)C=CC2=C[C@@H](O)[C@H](O)C[C@@]21C
IC50 [2]: 16.5 µM
IC50 [3]: 11 µM

C=C(C)[C@]1(O)C[C@@]2(C)C(=C[C@H]1O)C=CC(=O)[C@@H]2C
inhibition at 1 µM [4]: 10.2%

C=C(C)[C@@H]1C[C@@]2(C)C(=C[C@@H](O)[C@H](O)[C@@H]2C)[C@@H](O)[C@H]1O
inhibition at 1 µM [4]: 18.3%

C[C@@H]1C(=O)C=CC2=C[C@@H](O)[C@H](O)C[C@@]21C
inhibition at 1 µM [4]: 16.1%

COc1cc(/C=C/C(=O)CC(=O)/C=C/c2ccc(O)c(OC)c2)ccc1O [CURCUMIN]
inhibition at 1 µM [4]: 12.9%

CC(=O)O[C@H]1C(=O)[C@@]2(C)[C@H]([C@H](OC(=O)c3ccccc3)[C@]3(O)C[C@H](OC(=O)[C@H](O)[C@@H](NC(=O)c4ccccc4)c4ccccc4)C(C)=C1C3(C)C)[C@]1(OC(C)=O)CO[C@@H]1C[C@@H]2O [PACLITAXEL]
IC50 [1]: 0.0002 µM
IC50 [2]: 0.0064 µM
